From US3974140A, “Ureidoacetamido-penicillins” (Bayer Aktiengesellschaft, priority 1970, dated 1976)

How the values were obtained:
Test in all cases: MIC, liquid medium test tube series dilution test
Staph. aureus 133 = assay type: cell-based, Staphylococcus aureus; conditions: Staph. aureus 133, 24 hours, 37°C
Procedure: (§1) The chemotherapeutic activity of the new penicillins was tested in vivo and in vitro. The in vitro inhibition values (MIC = minimum inhibition concentration (see Tables 1 and 2) were determined in a liquid medium in the test tube series dilution test, with readings being taken after 24 hours' incubation at 37°C. The MIC is indicated by the non-turbid test tube in the dilution series. A complete medium of the following composition was used as the nutrient medium:
(§2) The figures quoted in the Examples for the effectiveness against certain bacteria (units/ml) are minimum inhibitory concentrations in the test tube series dilution test after 24 hours' incubation.

Proteus vulg. 3400 = assay type: cell-based, Proteus vulgaris; conditions: Proteus vulg. 3400, 24 hours, 37°C
Procedure: as §1, §2

E. coli C 165 = assay type: cell-based; conditions: E. coli C 165, 24 hours, 37°C
Procedure: as §1, §2

Klebsiella 63 = assay type: cell-based; conditions: Klebsiella 63, 24 hours, 37°C
Procedure: as §1, §2

[1] = tested on: Streptoc. faec. ATCC 9790; assay type: cell-based; conditions: Strep. faec. (Enterococcus) ATCC 9790, 24 hours, 37°C
Procedure: as §1, §2

E. coli A 261 = assay type: cell-based; conditions: E. coli A 261, 24 hours, 37°C
Procedure: as §1, §2

Psdm. aerug. Walter = assay type: cell-based, Pseudomonas aerug.; conditions: 24 hours, 37°C
Procedure: as §1, §2

Proteus vulg. 1017 = assay type: cell-based, Proteus vulgaris; conditions: Proteus vulg. 1017, 24 hours, 37°C
Procedure: as §1, §2

E. coli 183/58 = assay type: cell-based; conditions: E. coli 183/58, 24 hours, 37°C
Procedure: as §1, §2

Psdm. aerug. Bonn = assay type: cell-based, Pseudomonas aerug.; conditions: 24 hours, 37°C
Procedure: as §1, §2

E. coli 14 = assay type: cell-based; conditions: E. coli 14, 24 hours, 37°C
Procedure: as §1, §2

Compound | MIC (Staph. aureus 133) | MIC (Proteus vulg. 3400) | MIC (E. coli C 165) | MIC (Klebsiella 63) | MIC [1] | MIC (E. coli A 261) | MIC (Psdm. aerug. Walter) | MIC (Proteus vulg. 1017) | MIC (E. coli 183/58) | MIC (Psdm. aerug. Bonn) | MIC (E. coli 14) [units/ml]
CN(C(=O)CCCCl)C(=O)NC(C(=O)N[C@@H]1C(=O)N2[C@@H]1SC(C)(C)[C@@H]2C(=O)O)c1cccs1 (stereo partly drawn) [Example 5, Sodium D,L-(3-γ-chlorobutyryl-3-methyl-ureido)-(2-thienyl)methylpenicillin] | < 0.8 units/ml | 20-100 units/ml | 4-20 units/ml | 20-100 units/ml | 100-500 units/ml | 100-500 units/ml | 20-100 units/ml |  |  |  | 
COC(=O)N(C)C(=O)NC(C(=O)N[C@@H]1C(=O)N2[C@@H]1SC(C)(C)[C@@H]2C(=O)O)c1cccs1 (stereo partly drawn) [Example 20, Sodium D,L-α-(3-methoxycarbonyl-3-methyl-ureido)-2-thienylmethylpenicillin] | < 0.8 units/ml | 100-500 units/ml | 20-100 units/ml | 20-100 units/ml | 20-100 units/ml | > 500 units/ml | 100-500 units/ml |  |  |  | 
C=CCN(C(=O)NC(C(=O)N[C@@H]1C(=O)N2[C@@H]1SC(C)(C)[C@@H]2C(=O)O)c1cccs1)C(=O)c1ccccc1 (stereo partly drawn) [Example 21, Sodium D,L-α-(3-benzoyl-3-allyl-ureido)-2-thienylmethylpenicillin] | < 0.8 units/ml | 20-100 units/ml | 20-100 units/ml | 20-100 units/ml | 100-500 units/ml | > 500 units/ml | 100-500 units/ml |  |  |  | 
CN(C(=O)NC(C(=O)N[C@@H]1C(=O)N2[C@@H]1SC(C)(C)[C@@H]2C(=O)O)c1cccs1)C(=O)c1ccco1 (stereo partly drawn) [Example 22, Sodium D,L-α-(3-[2-furoyl]-3-methyl-ureido)-2-thienylmethylpenicillin] | < 0.8 units/ml | 4-20 units/ml | 4-20 units/ml | 20-100 units/ml | ~ 20 units/ml | > 500 units/ml | 20-100 units/ml |  |  |  | 
CN(C)C(=O)N(C)C(=O)NC(C(=O)N[C@@H]1C(=O)N2[C@@H]1SC(C)(C)[C@@H]2C(=O)O)c1cccs1 (stereo partly drawn) [Example 23, Sodium D,L-α-(3-dimethylaminocarbonyl-3-methyl-ureido)-2-thienylmethylpenicillin] | 0.8-4 units/ml | > 500 units/ml | 100-500 units/ml | > 500 units/ml | 100-500 units/ml | > 500 units/ml | > 500 units/ml |  |  |  | 
CSc1ccc(C(NC(=O)N(C)C(=O)c2ccccc2)C(=O)N[C@@H]2C(=O)N3[C@@H]2SC(C)(C)[C@@H]3C(=O)O)cc1 (stereo partly drawn) [Example 33, Sodium α-(3-benzoyl-3-methyl-ureido)-4-methylthiobenzylpenicillin] | < 0.8 units/ml |  | 4-20 units/ml | 4-20 units/ml | 20-100 units/ml | 100-500 units/ml | 4-20 units/ml | 4-20 units/ml |  |  | 
CN(C(=O)CCCl)C(=O)NC(C(=O)N[C@@H]1C(=O)N2[C@@H]1SC(C)(C)[C@@H]2C(=O)O)C1CC=CCC1 (stereo partly drawn) [Example 36, Sodium α-(3-β-chloropropionyl-3-methyl-ureido)-cyclohex-3-enylmethylpenicillin] | 4-20 units/ml |  | 100-500 units/ml | > 500 units/ml | 100-500 units/ml | > 500 units/ml | > 500 units/ml | > 500 units/ml |  |  | 
Cc1noc(C)c1C(=O)N(C)C(=O)N[C@@H](C(=O)N[C@@H]1C(=O)N2[C@@H]1SC(C)(C)[C@@H]2C(=O)O)c1ccccc1 [Example 76] | < 0.8 units/ml |  |  |  |  |  |  |  | ~ 4 units/ml |  | 
CC(=O)N(Cc1ccccc1)C(=O)N[C@@H](C(=O)N[C@@H]1C(=O)N2[C@@H]1SC(C)(C)[C@@H]2C(=O)O)c1ccccc1 [Example 87] | < 0.8 units/ml |  |  |  |  |  |  |  |  |  | 
CN(C(=O)N[C@@H](C(=O)N[C@@H]1C(=O)N2[C@@H]1SC(C)(C)[C@@H]2C(=O)O)c1ccccc1)C(=O)c1ccco1 [Example 91, Sodium D(-)-α-(3-[2-furoyl]-3-methyl-ureido)-benzylpenicillin] | < 0.8 units/ml |  |  |  |  |  |  |  |  |  | 
CCCN(C(=O)N[C@@H](C(=O)N[C@@H]1C(=O)N2[C@@H]1SC(C)(C)[C@@H]2C(=O)O)c1ccccc1)C(=O)c1ccco1 [Example 92 B, Sodium D (-)-α-(3-[2-furoyl]-3-n-propyl-ureido)-benzylpenicillin] | < 0.8 units/ml |  |  |  |  | > 500 units/ml |  |  |  |  | 
CCN(C(=O)N[C@@H](C(=O)N[C@@H]1C(=O)N2[C@@H]1SC(C)(C)[C@@H]2C(=O)O)c1ccccc1)C(=O)c1ccco1 [Example 93 B, Sodium D(-)-α-(3-[2-furoyl]-3-ethyl-ureido)-benzylpenicillin] | < 0.8 units/ml |  |  |  |  | > 500 units/ml |  |  |  |  | 
CC1(C)S[C@@H]2[C@H](NC(=O)[C@H](NC(=O)N(C(=O)c3ccccc3)c3ccccc3)c3ccccc3)C(=O)N2[C@H]1C(=O)O [Example 99 B, Sodium D(-)-α-(3-benzoyl-3-phenyl-ureido)-benzylpenicillin] | < 0.8 units/ml |  | 20-100 units/ml | > 500 units/ml | 100-500 units/ml | > 500 units/ml | 100-500 units/ml | ~500 units/ml |  |  | 
CC1(C)S[C@@H]2[C@H](NC(=O)[C@H](NC(=O)N3CCCCCC3=O)c3ccccc3)C(=O)N2[C@H]1C(=O)O [Example 101 B, Sodium D(-)-α-(hexahydroazepin-2-on-1-yl-carbonyl-amino)-benzylpenicillin] | < 0.8 units/ml |  | 20-100 units/ml | 100-500 units/ml | ~20 units/ml | > 500 units/ml | 100-500 units/ml | 100-500 units/ml |  |  | 
CC1(C)S[C@@H]2[C@H](NC(=O)[C@H](NC(=O)N3CCCC3=O)c3ccccc3)C(=O)N2[C@H]1C(=O)O [Example 102, Sodium D(-)-β-(pyrrolid-2-on-1-yl-carbonylamino)-benzylpenicillin] | < 0.8 units/ml |  |  |  |  | > 500 units/ml |  |  |  |  | 
CN(C=O)C(=O)N[C@@H](C(=O)N[C@@H]1C(=O)N2[C@@H]1SC(C)(C)[C@@H]2C(=O)O)c1ccccc1 [Example 103, Sodium D(-)-β-(3-formyl-3-methyl-ureido)-benzylpenicillin] | < 0.8 units/ml |  | 4-20 units/ml |  | 20-100 units/ml | > 500 units/ml |  | 100-500 units/ml |  |  | 
CCN(C(=O)N[C@@H](C(=O)N[C@@H]1C(=O)N2[C@@H]1SC(C)(C)[C@@H]2C(=O)O)c1ccccc1)C(=O)c1ccc(OC)c([N+](=O)[O-])c1 [Example 108, Sodium D(-)-α-(3-[3-nitro-4-methoxy-benzoyl]-3-ethyl-ureido)benzylpenicillin] | < 0.8 units/ml |  | 4-20 units/ml | 100-500 units/ml | ~ 20 units/ml | > 500 units/ml | 20-100 units/ml | 20-100 units/ml |  | 0.8-4 units/ml | 
CCCN(C(=O)N[C@@H](C(=O)N[C@@H]1C(=O)N2[C@@H]1SC(C)(C)[C@@H]2C(=O)O)c1ccccc1)C(=O)c1ccc(OC)c([N+](=O)[O-])c1 [Example 109, Sodium D(-)-α-(3-[3-nitro-4-methoxybenzoyl]-3-n-propyl-uredio)-benzylpenicillin] | 0.8 units/ml |  | 4-20 units/ml | 100-500 units/ml | 4-20 units/ml | > 500 units/ml | 50-100 units/ml | 20-100 units/ml |  |  | 
CC1(C)S[C@@H]2[C@H](NC(=O)[C@H](NC(=O)NC(=O)c3ccccc3)c3ccccc3)C(=O)N2[C@H]1C(=O)O [sodium D(-)-α-(3-benzoylureido)benzylpenicillin, reference compound] |  | 50 units/ml |  |  |  |  |  |  |  | 25 units/ml | 6.25
Sodium D(-)-α-(3-[2-furoyl]-3-phenyl-ureido)-benzylpenicillin [Example 105 B] | < 0.8 units/ml |  | 4-20 units/ml | 100-500 units/ml | 20-100 units/ml | > 500 units/ml | > 500 units/ml | > 500 units/ml |  |  | 
